In US6251925A, “Therapeutic biaryl derivatives” (Glaxo Wellcome Inc., priority 1998, dated 2001):

What was measured:
Type in all cases: cell-based
[1] = target: human beta-3-adrenoceptor (Homo sapiens, UniProt P13945); test: extracellular cAMP accumulation (agonist activity) in CHO-6CRE-luciferase cells expressing hβ3; conditions: CHO cells expressing hβ3, 60 min, 37° C.
Description: (§1) A particularly useful method for determining agonist activity at human atypical beta-adrenoceptors involves the use of Chinese hamster ovarian (CHO) cells transfected with the human beta-3-adrenoceptor according to Method 1.
(§2) General cell culture guidelines are observed (Fershney, R. A. (1987) Culture of animal cells: A manual of basic technique. VViley-Liss, Inc., N.Y.). A standard cell culture incubator is used (37° C., 5% CO2 in air, 95% relative humidity). H β3 CHO cells are grown in DMEM/F12 (with pyroxidine.HCl, 15 mM HEPES, L-glutamine), supplanted with 10% heat-inactivated FBS, 500 μg/ml G418, 2 mM L-glutamine, 100 units penicillin G and 100 μg streptomycin sulfate. One confluent flask of cells is trypsinised and resuspended in the above medium at a concentration of 30-40,000 cells/100 μl and plated into 96-well flat bottom plates. The cells are then used for assay within 18-24 hours.
(§3) The medium is aspirated from each well, and replaced with 180 μl DMEM/F12 with […] IBMX. Antagonists, if required, are added at this stage. The plate is then placed back in the incubator for 30 min. Drugs are then added to the wells (20 μl, 100 x required final concentration)for 60 min. Responses were determined by measuring cAMP levels of a 20 ul sample of extracellular media using a scintillation proximity based radio-immunoassay (NEN Flashplates). CHO-6CRE-iuciferase cell lines which stably express hβ3 receptors are seeded at 30,000 cells/well for 24 hr in DMEM/F12 containing 10% FBS. Media is removed from the cells and replaced with DMEM/F12 buffer (180 μl) containing […] IBMX and 1 mM ascorbic acid for 30 min prior to addition of compound. Vehicle or agonist (20 μl) is added and incubated at 37° C. for 60 minutes. At the end of the incubation period, samples of extracellular media are removed for direct assay in cAMP Flashplates (NEN).
(§4) As used herein, a compound is considered to be an agonist for hβ3if the compound stimulates the accumulation of extracellular cAMP with CHO-6CRE-luciferase cells expressing hβ3. […] The relative potency of a hβ3 agonist may be compared to its potency for stimulating the accumulation of extracellular cAMP with CHO-6CRE-luciferase cells expressing hβ2 and hβ1.

[2] = target: human beta-1-adrenoceptor (Homo sapiens, UniProt P08588); test: extracellular cAMP accumulation in CHO-6CRE-luciferase cells expressing hβ1 (selectivity of hβ3 agonists); conditions: relative potency hβ3 vs hβ1, cAMP accumulation
Description: as §1, §2, §3, §4

[3] = target: human beta-2-adrenoceptor (Homo sapiens, UniProt P07550); test: extracellular cAMP accumulation in CHO-6CRE-luciferase cells expressing hβ2 (selectivity of hβ3 agonists); conditions: relative potency hβ3 vs hβ2, cAMP accumulation
Description: as §1, §2, §3, §4

Sequence of human beta-1-adrenoceptor (P08588 whole entry): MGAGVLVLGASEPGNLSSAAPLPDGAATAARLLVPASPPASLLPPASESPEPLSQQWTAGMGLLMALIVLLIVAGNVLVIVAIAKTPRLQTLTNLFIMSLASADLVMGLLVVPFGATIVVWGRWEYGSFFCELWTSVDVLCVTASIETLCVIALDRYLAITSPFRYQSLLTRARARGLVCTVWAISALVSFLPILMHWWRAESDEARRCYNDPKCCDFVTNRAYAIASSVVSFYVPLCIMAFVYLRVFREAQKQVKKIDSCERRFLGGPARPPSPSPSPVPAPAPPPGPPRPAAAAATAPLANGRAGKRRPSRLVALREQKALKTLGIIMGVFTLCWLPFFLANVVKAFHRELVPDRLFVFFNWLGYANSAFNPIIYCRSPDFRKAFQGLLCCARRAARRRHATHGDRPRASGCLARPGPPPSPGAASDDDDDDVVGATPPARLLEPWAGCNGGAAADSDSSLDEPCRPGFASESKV
Sequence of human beta-2-adrenoceptor (P07550 whole entry): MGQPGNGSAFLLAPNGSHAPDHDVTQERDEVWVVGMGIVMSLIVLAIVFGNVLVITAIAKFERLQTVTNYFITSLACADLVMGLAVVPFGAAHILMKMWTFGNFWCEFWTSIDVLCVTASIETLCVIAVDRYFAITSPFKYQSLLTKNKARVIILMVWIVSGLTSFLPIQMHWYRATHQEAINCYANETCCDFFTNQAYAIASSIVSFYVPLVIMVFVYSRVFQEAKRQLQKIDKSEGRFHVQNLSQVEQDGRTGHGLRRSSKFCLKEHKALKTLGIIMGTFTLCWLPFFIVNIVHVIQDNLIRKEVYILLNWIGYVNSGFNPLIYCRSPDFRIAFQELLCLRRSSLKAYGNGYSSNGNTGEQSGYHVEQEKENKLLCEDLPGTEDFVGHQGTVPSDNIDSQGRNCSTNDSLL
Sequence of human beta-3-adrenoceptor (P13945 whole entry): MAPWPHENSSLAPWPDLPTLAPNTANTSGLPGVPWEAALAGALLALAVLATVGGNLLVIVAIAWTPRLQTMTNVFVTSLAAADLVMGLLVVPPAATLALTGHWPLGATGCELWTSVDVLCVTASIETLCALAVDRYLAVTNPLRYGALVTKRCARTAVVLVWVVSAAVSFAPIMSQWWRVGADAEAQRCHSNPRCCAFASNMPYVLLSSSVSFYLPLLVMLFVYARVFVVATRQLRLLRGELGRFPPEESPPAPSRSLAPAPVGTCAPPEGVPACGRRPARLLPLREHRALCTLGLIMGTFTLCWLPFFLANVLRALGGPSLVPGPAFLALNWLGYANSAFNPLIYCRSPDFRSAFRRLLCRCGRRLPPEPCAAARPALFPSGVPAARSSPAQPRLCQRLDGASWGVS

SMILES | EC50 [1] [µM] | times more potent at hβ3 than at hβ1 [2] | times more potent at hβ3 than at hβ2 [3]
O=C(O)c1cccc(-c2cccc(NCCNC[C@H](O)c3cccc(Cl)c3)c2)c1 [Example 10, (R)-3'-[[2-[[2-(3-Chlorophenyl)-2-hydroxyethyl]amino]ethyl]amino]-[1,1'-biphenyl]-3-carboxylic acid] | ≤ 0.001 | at least 100 times | at least 100 times
O=C(O)c1ccc(-c2cccc(NCCNC[C@H](O)c3cccc(Cl)c3)c2)c(C(=O)O)c1 [Example 12, (R)-3'-[[2-[[2-(3-Chlorophenyl)-2-hydroxyethyl]amino]ethyl]amino]-[1,1'-biphenyl]-2,4-dicarboxylic acid] | ≤ 0.1 | at least 100 times | at least 100 times
O=C(O)c1cc(-c2cccc(NCCNC[C@H](O)c3cccc(Cl)c3)c2)cc2c1OCC2 [Example 23] | ≤ 0.1 | at least 100 times | at least 100 times
C[C@H](CNc1cccc(-c2cncc(C(=O)O)c2)c1)NC[C@H](O)c1cccc(Cl)c1 [Example 21, 5-[3-[[2R-[[2-(3-Chlorophenyl)-2R-hydroxyethyl]amino]propyl]amino]phenyl]-3-pyridinecarboxylic acid] | ≤ 0.1 | at least 100 times | at least 100 times
O=C(O)c1cccc(-c2cccc(OCCNC[C@H](O)c3cccc(Cl)c3)c2)c1 [Example 17] | ≤ 0.1 | at least 100 times | at least 100 times
O=C(O)c1cccc(-c2cccc(NCCNC[C@H](O)c3cc(Cl)cc(Cl)c3)c2)c1 [Example 9, (R)-3'-[[2-[[2-(3,5-Dichlorophenyl)-2-hydroxyethyl]amino]ethyl]amino]-[1,1'-biphenyl]-3-carboxylic acid] | ≤ 0.1 | at least 100 times | at least 100 times
Cc1ccc(C(=O)O)cc1-c1cccc(NCCNC[C@H](O)c2cccc(Cl)c2)c1 [Example 13, (R)-3'-[[2-[[2-(3-Chlorophenyl)-2-hydroxyethyl]amino]ethyl]amino]-[1,1'-biphenyl]-2-methyl-5-carboxylic acid] | – | at least 100 times | at least 100 times
O=C(O)c1ccc(-c2cccc(NCCNC[C@H](O)c3cccc(Cl)c3)c2)cc1Cl [Example 14, (R)-3'-[[2-[[2-(3-Chlorophenyl)-2-hydroxyethyl]amino]ethyl]amino]-[1,1'-biphenyl]-3-chloro-4-carboxylic acid] | ≤ 0.1 | at least 100 times | at least 100 times

Now from value to compound:

EC50 [1] [µM] | times more potent at hβ3 than at hβ1 [2] | times more potent at hβ3 than at hβ2 [3] | SMILES
≤ 0.1 | at least 100 times | at least 100 times | COC(=O)c1cc(C(=O)O)ccc1-c1cccc(NCCNC[C@H](O)c2cccc(Cl)c2)c1 [Example 11, (R)-3'-[[2-[[2-(3-Chlorophenyl)-2-hydroxyethyl]amino]ethyl]amino]-[1,1'-biphenyl]-2,4-dicarboxylic acid 2-methyl ester]
≤ 0.1 | at least 100 times | at least 100 times | C[C@H](CNc1cccc(-c2ncccc2C(=O)O)c1)NC[C@H](O)c1cccc(Cl)c1 [Example 22, 2-[3-[[2R-[[2-(3-Chlorophenyl)-2R-hydroxyethyl]amino]propyl]amino]phenyl]-3-pyridinecarboxylic acid]
≤ 0.001 | at least 100 times | at least 100 times | O=C(O)c1cncc(-c2cccc(NCCNC[C@H](O)c3cccc(Cl)c3)c2)c1 [Example 24, (R)-5-[3-[[2-[[2-(3-chlorophenyl)-2-hydroxyethyl]amino]ethyl]amino]phenyl]-3-pyridinecarboxylic acid]
≤ 0.001 | at least 100 times | at least 100 times | O=C(O)c1cccc(-c2cccc(NCCNC[C@@H](O)COc3ccccc3)c2)c1 [Example 16]
≤ 0.001 | at least 100 times | at least 100 times | C[C@H](CNc1cccc(-c2ccc(C(=O)O)cc2C(=O)O)c1)NC[C@H](O)c1cccc(Cl)c1 [Example 20, 3'-[[2R-[[2-(3-Chlorophenyl)-2R-hydroxyethyl]amino]propyl]amino]-[1,1'-biphenyl]-2,4-dicarbonylic acid]
